Experiment [1] addresses T1, baculovirus expressed hAR protein (Homo sapiens, UniProt P10275).
T1 construct: made in house; host or cells: Sf-21 insect cells (baculovirus)
T1 sequence (P10275 1-920): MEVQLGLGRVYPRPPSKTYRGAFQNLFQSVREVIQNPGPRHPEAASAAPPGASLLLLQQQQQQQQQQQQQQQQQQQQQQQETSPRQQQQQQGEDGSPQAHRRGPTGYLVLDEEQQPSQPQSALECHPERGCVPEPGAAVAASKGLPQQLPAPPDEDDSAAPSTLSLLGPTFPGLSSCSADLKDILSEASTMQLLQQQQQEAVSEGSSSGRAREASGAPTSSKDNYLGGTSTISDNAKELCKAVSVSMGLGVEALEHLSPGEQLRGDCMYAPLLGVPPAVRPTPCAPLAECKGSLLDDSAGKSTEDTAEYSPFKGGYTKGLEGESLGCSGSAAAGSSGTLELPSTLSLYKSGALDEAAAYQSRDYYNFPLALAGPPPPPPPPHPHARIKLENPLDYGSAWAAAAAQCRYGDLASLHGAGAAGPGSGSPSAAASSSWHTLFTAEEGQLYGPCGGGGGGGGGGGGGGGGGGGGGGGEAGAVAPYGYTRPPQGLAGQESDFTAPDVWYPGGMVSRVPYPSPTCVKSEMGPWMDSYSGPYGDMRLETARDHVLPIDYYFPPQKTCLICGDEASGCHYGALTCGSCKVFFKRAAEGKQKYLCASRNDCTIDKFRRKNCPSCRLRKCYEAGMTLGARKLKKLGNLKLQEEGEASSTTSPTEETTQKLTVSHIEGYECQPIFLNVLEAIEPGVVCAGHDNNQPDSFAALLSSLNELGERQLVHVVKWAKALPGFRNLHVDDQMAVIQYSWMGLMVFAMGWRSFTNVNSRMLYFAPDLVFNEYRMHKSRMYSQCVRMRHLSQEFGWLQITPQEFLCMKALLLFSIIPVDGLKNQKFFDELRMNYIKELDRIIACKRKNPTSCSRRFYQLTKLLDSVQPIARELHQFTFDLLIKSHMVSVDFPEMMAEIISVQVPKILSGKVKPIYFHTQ
Nature of the experiment: Receptor binding assay ([3H]-dihydrotestosterone displacement).

The target of experiment [2] is endogenous human androgen receptor (hAR) (Homo sapiens, UniProt P10275). Nature of the experiment: Activation of hAR-responsive luciferase reporter in MDA-MB-453 cells. Type of experiment: cell-based. On the procedure:
A functional assay was conducted to determine the ability of test substances to modulate gene expression via endogenous human androgen receptor (hAR) in a human cell line. A luciferase reporter assay was utilized to establish the ability of test compounds to activate hAR-regulated gene expression in a human cell line containing endogenously expressed hAR (MDAMB-453 cells) transfected with an androgen-responsive luciferase reporter plasmid containing the cDNA for firefly luciferase. MDA-MB-453 cells were transfected with a plasmid containing the cDNA for firefly luciferase (LUC) under the control of a conditional promoter containing hormone response elements recognized by AR (MMTV-LUC) and a P-galactosidase expression plasmid (pRS-(3-Gal) for normalization of transfection efficiency. The reporter plasmid MMTVLUC contains the mouse Mammary Tumor Virus (MMTV) Long Terminal Repeat (LTR) conditional promoter containing hormone response elements recognized by hAR. The luciferase response was calculated as: Luciferase response/β-gal rate where
Luciferase response=Relative Luciferase Units (RLU) and
β-gal rate=β-gal 0.D.415/β-Gal incubation time in minutes.
The mean of the normalized response at each concentration of compound was calculated. The effective concentration that produced 50% of the maximum response (EC50) was determined for each compound by interpolation between two concentrations spanning the midpoint of the concentration-response curve. Agonist efficacy for test compounds was calculated as a percent of normalized response relative to the maximum normalized response by the reference agonist DHT.

Experiment [3] concerns TNFα-IL-1β-induced IL-6 promoter activity. Kind of experiment: IL-6 promoter repression assay (Saos-2 human osteoblast cells transfected with human AR). Type of experiment: cell-based. The following applies: for IC50: Homo sapiens, read-out: average IC50, suppression of TNFα-IL-1β-induced IL-6 promoter activity. An excerpt: An exemplary cotransfection assay for measuring AR-mediated effects on bone measures the modulation of IL-6 promoter activity. IL-6 is an important bone resorption factor (Jilka et al, Science 257: 88-91 (1992); Bellido et al., J Clin Invest 95: 2886-2895 (1995)). Overexpression of IL-6 can cause severe bone loss in vivo. […] It has been reported that androgens regulate IL-6 mRNA by suppressing NFKB binding to its response element (Keller et al., J Biol Chem 271: 26267-26275 (1996)). Thus, the AR-mediated modulation of IL-6 promoter activity provides an excellent marker for studying androgen action in bone. The assay is a cotransfection assay that measures the ability of compound to repress gene expression via the human androgen receptor from the IL-6 promoter using a luciferase reporter assay in human osteoblast cells.
A human osteoblast cell line (Saos-2, available from American Type Cell Culture (ATCC, Rockville, Md.)) can be used in the luciferase reporter assay. An IL-6-LUC reporter plasmid can be constructed by inserting the IL-6 promoter sequence into a luciferase reporter vector (e.g., by cloning the human IL-6 promoter region from −232 to +17 bp from human liver genomic DNA (Clontech, Palo Alti, Calif.) and inserting the sequence into a pGL2-enhancer reporter plasmid (Promega, Madison, Wis.)). The Saos-2 cell line can be transiently transfected with a human AR expression plasmid and a luciferase reporter plasmid containing the IL-6 promoter upstream of the luciferase cDNA. The compounds to be tested are added to the cells after transfection and after 24 hours of incubation, the cells are lysed with a detergent-containing buffer and assayed for luciferase activity. The EC50 is determined from the concentration response curve for the compound, and the inhibitory effect on TNFα/IL-1β induction (% inhibition) can be calculated according to the equation: […]
IL-6 is an important bone resorption factor. Over-expression of IL-6 can cause severe bone loss in vivo. Reducing IL-6 production by bone cells would be therapeutically beneficial by reducing bone resorption. Compound 102 and the androgen receptor modulators LG0893410 and LG0893411 were tested to determine their ability to suppress TNFα-IL-1β-induced IL-6 promoter activity in Saos-2 human osteoblast cells using a cotransfection assay. A human osteoblast cell line (Saos-2) was transiently transfected with a human AR expression plasmid and a luciferase reporter plasmid containing the IL-6 promoter upstream of the luciferase cDNA. Saos-2 cells were seeded at 6000 cells/well in 96-well plates. The same day, a non-liposomal formulation, FuGENE 6 reagent (Roche, Indianapolis, Ind.) was used for transfection of the cells. To each well was added […] of the IL-6-LUC reporter plasmid and 0.7 μg of pCMV-hAR. Twenty-four hours after transfection, different concentrations of the solvated compound (10^−11 to 10^−6 M) in DMEM (Dulbecco's Minimal Essential Media) were added in triplicate to the cells and the cells were incubated for 24 hours. The expression of luciferase was stimulated by the cytokines Tumor Necrosis Factor α (TNFα, 10 ng/mL) and Interleukin-1 beta (IL-1β, 1 ng/mL). The medium was aspirated and the cells were lysed with a detergent-containing buffer. After addition of Luciferase Assay Buffer to each well, the cells were assayed for luciferase activity using a luminometer to determine the level of transcriptional activation.

[4] abbreviates: MDA-MB-453 cells, MMTV-LUC; read-out: EC50, activating hAR-responsive luciferase reporter.

Results on 3 compounds are retold here after patent US11358931B2, “Selective androgen receptor modulators (SARMs) and uses thereof” (priority 2007, dated 2022).

Where two headings read alike, the source gives them in different places.

In general, Ki refers to a measure of affinity in units of concentration, obtained from inhibition or displacement. A word on the EC50: it is the concentration needed to bring the measured effect to its halfway point. As a reminder, the IC50 is the point on the concentration scale where inhibition reaches its midpoint. In experiment [1], `N#Cc1ccc(N2CCC[C@@H]2[C@@H](O)C(F)(F)F)cc1C(F)(F)F` [Compound 102, R,R-4-(2-(1-Hydroxyl-2,2,2-trifluoroethyl)-pyrrolidinyl)-2-trifluoromethyl-benzonitrile] yielded a Ki of 0.9 nM. Also, the “more potent than LG0893410 and LG0893411 in activating hAR-responsive luciferase reporter” value in experiment [2] (ratio of EC50) is 8.5 to 12.5 times. Further, the concentration for a half-maximal effect (EC50) in experiment [2] (read-out: EC50, activating hAR-responsive luciferase reporter; MDA-MB-453 cells, MMTV-LUC) is 2.8 nM. For the same compound, in experiment [3] (Saos-2 cells), the concentration for half-maximal inhibition (IC50) was determined as 0.41 nM and the “efficacy, % of DHT” value was found to be 97%. In addition, in experiment [3] (ratio of IC50), the “more potent than LG0893410 and LG0893411 in suppressing IL-6 promoter activity” value was 3-4 fold.

The compound `O=[N+]([O-])c1ccc(N2CCC[C@@H]2[C@@H](O)C(F)(F)F)cc1C(F)(F)F` [LG0893410, R,R-2,2,2-trifluoro-1-[1-(4-nitro-3-trifluoromethyl-phenyl)-pyrrolidin-2-yl]-ethanol] returned an inhibitory constant (Ki) in experiment [1] of 2.5 nM. Besides, in experiment [2] (setting [4]), the EC50 was determined as 24.2 nM. For the same compound, the IC50 in experiment [3] (Saos-2 cells) is 1.2 nM.

`O=[N+]([O-])c1ccc(N2CCC[C@@H]2[C@H](O)C(F)(F)F)cc1C(F)(F)F` [LG0893411, S, R-2,2,2-trifluoro-1-[1-(4-nitro-3-trifluoromethyl-phenyl)-pyrrolidin-2-yl]-ethanol] registered an inhibition constant (Ki) in experiment [1] of 5.7 nM. The concentration giving a half-maximal response (EC50) in experiment [2] (setting [4]) was 35 nM. Moreover, in experiment [3] (Saos-2 cells), the IC50 turned out to be 1.5 nM.
